Laboratory results: patent US20160000762A1, “IMPROVING COGNITIVE FUNCTION” (THE REGENTS OF THE UNIVERSITY OF CALIFORNIA, priority 2013, published 2016)

Tests used:
Ras [1] = experiment: GST-Raf1-RBD pulldown of active Ras, primary cortical neurons; assay type: cell-based; conditions: 5 μM
Description: GST-pull-down assay. To measure levels of active Ras, brain lysate homogenized with Ral buffer (25 mM Tris-HCl, pH 7.4, 250 mM NaCl, 0.5% NP40, 1.25 mM MgCl2, and 5% glycerol) from APP transgenic, APP knockout, or wild-type mice was incubated with GST-Raf-RBD purified protein coupled with GLUTATHIONE SEPHAROSE™ (Amersham) overnight at 4° C. After 24 hours, pellets were washed with Ral buffer and western blotting was conducted with anti-Ras.
We next investigated the molecular mechanism by which BTA-EG4 may alter dendritic spine formation. Ras, a small GTPase, is involved in dendritic spine formation and synaptic delivery of AMPA receptors (Zhu et al., 2002; Lee et al., 2011). Moreover, abnormal Ras signaling is associated with neurodegenerative disease, causing cognitive impairments and learning deficits (Stornetta and Zhu, 2011). Thus, we initially investigated the effect of BTA-EG4 on Ras signaling by treating primary hippocampal neurons with BTA-EG4 (5 μM) or control for 24 hrs. […] Further, levels of active Ras were elevated following BTA-EG4 treatment (5 μM) in primary cortical neurons (FIG. 7C) and following BTA-EG4 treatment (30 mg/kg) in wild-type mice (FIG. 7D). We also examined whether BTA-EG4 can alter the activity of downstream Ras signaling proteins, including p-ERK and p-CREB.

Aβ = Aβ ELISA, brain of injected wild-type mice; assay type: in vivo; conditions: 15 or 30 mg/kg i.p. daily for 2 weeks (both doses)
Description: Aβ ELISA. Mouse brains were homogenized in tissue homogenization buffer containing 250 mM sucrose, 20 mM Tris base, protease, and phosphatase inhibitors. To measure soluble Aβ, DEA extraction was performed. Crude 10% homogenate was mixed with an equal volume of 0.4% diethylamine (DEA), sonicated, and ultracentrifuged for 1 hr at 100,000×g. The supernatant was collected and neutralized with 10% 0.5 M Tris, pH 6.8. Sensitive and specific ELISAs to rodent Aβ1-40 was purchased from IBL Transatlantic (Toronto, Canada) and conducted per the manufacturer's protocol.
To test whether BTA-EG4 alters Aβ production in vitro, primary cortical neurons were treated with BTA-EG4 (1 or 5 μM) or control (10% DMSO), and Aβ levels were measured using ELISA. […] We then examined whether BTA-EG4 can alter Aβ levels in vivo by injecting wild-type mice daily for 2 weeks with BTA-EG4 (15 or 30 mg/kg, 10% DMSO in saline, i.p.). […] Furthermore, BTA-EG4 altered APP processing in vivo, as monitored by increased sAPPα (α-secretase cleavage product) and decreased sAPPβ (β-secretase cleavage product) levels in BTA-EG4 injected wild-type mice (30 mg/kg, i.p) compared to control-injected mice (FIGS. 1E, 1F).

Ras [2] = experiment: Ras activity assay, brain lysate of 3× Tg AD mice; assay type: in vivo; conditions: cortex and hippocampus, 30 mg/kg daily, 2 weeks
Description: Ras activity assay. Brain lysate from 3× Tg AD mice at 6-10 months or 13-16 months of age was homogenized with Ral buffer (25 mM Tris-HCl, pH 7.4, 250 mM NaCl, 0.5% NP40, 1.25 mM MgCl2, and 5% glycerol) to measure active Ras levels. Briefly, brain lysate was incubated with GST-Raf-RBD purified protein coupled with GLUTATHIONE SEPHAROSE™ (Amersham) overnight at 4° C. After 24 h, pellets were washed with Ral buffer and western blotting was conducted with anti-Ras.
BTA-EG4 injected 6-10 month old 3× Tg AD mice had increased Ras activity. […] Therefore, we examined whether the same mechanism is shared for improving dendritic spine density in the 3× Tg AD mouse model. To test this, 6-10 month old or 13-16 month old 3× Tg AD mice were injected with 30 mg/kg BTA-EG4 or vehicle daily for two weeks. After two weeks, mouse brains were homogenized with Ral buffer and levels of active Ras and RasGRF1 ([…]) were measured via Western blot. […] However, Ras activity was unchanged in the cortex and hippocampus of 13-16 month old mice (FIGS. 12E-12H, n=2 brains/group).

BTA-EG4 was tested, and the “levels of active Ras” value (Ras [1]) was “elevated”, the “Aβ peptide levels in brain” value (Aβ) was “significantly decreased” and the Ras activity (Ras [2]; 6-10 months) was “increased”. The Ras activity (Ras [2]; 13-16 months) was “unchanged”.
